Reference: US12077503B2, “Substituted cyclic amides and their use as herbicides” (FMC CORPORATION, priority 2015, dated 2024)

What was measured:
Format in all cases: in vivo
[1] = tested on: ragweed (common ragweed, Ambrosia elatior); assay: Test A postemergence; settings: Ambrosia artemisiifolia, post-emergence, 240 h, Postemergence, read-out: Plant response rating, Ragweed
Procedure, shortened: (§1)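 Greenhouse, ~10 d after spray; visual injury vs untreated controls, 0 = no effect, 100 = complete control. Preemergence: directed soil spray over planted seeds. Postemergence: plants 2–10 cm, 1–2 leaf stage. Loam/sand blend. Compound in non-phytotoxic solvent with surfactant.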

[2] = tested on: wheat (Triticum aestivum); assay: Test A postemergence; settings: Triticum aestivum, post-emergence, 240 h, Postemergence, read-out: Plant response rating, Wheat
Procedure, shortened: as §1

[3] = tested on: blackgrass (Alopecurus myosuroides); assay: Test A postemergence; settings: Alopecurus myosuroides, post-emergence, 240 h, Postemergence, read-out: Plant response rating, Blackgrass
Procedure, shortened: as §1

Kochia (Kochia scoparia) [4] = assay: Test A postemergence; settings: Bassia scoparia, post-emergence, 240 h, Postemergence, read-out: Plant response rating, Kochia
Procedure, shortened: as §1

[5] = tested on: ryegrass, Italian (Italian ryegrass, Lolium multiflorum); assay: Test A postemergence; settings: Lolium multiflorum, post-emergence, 240 h, Postemergence, read-out: Plant response rating, Ryegrass, Italian
Procedure, shortened: as §1

[6] = tested on: giant foxtail (Setaria faberii); assay: Test A postemergence; settings: Setaria faberi, post-emergence, 240 h, Postemergence, read-out: Plant response rating, Foxtail, Giant
Procedure, shortened: as §1

corn (Zea mays) = assay: Test A postemergence; settings: Zea mays, post-emergence, 240 h, Postemergence
Procedure, shortened: as §1

[7] = tested on: pigweed (Amaranthus retroflexus); assay: Test A postemergence; settings: Amaranthus retroflexus, post-emergence, 240 h, Postemergence, read-out: Plant response rating, Pigweed
Procedure, shortened: as §1

[8] = tested on: Galium (catchweed bedstraw, Galium aparine); assay: Test A postemergence; settings: Galium, post-emergence, 240 h, Postemergence, read-out: Plant response rating, Galium
Procedure, shortened: as §1

[9] = tested on: barnyardgrass (Echinochloa crus-galli); assay: Test A postemergence; settings: Echinochloa crus-galli, post-emergence, 240 h, Postemergence, read-out: Plant response rating, Barnyardgrass
Procedure, shortened: as §1

[10] = tested on: ragweed (common ragweed, Ambrosia elatior); assay: Test A preemergence; settings: Ambrosia artemisiifolia, pre-emergence, 240 h, Preemergence
Procedure, shortened: as §1

Kochia (Kochia scoparia) [11] = assay: Test A preemergence; settings: Bassia scoparia, pre-emergence, 240 h, Preemergence
Procedure, shortened: as §1

[12] = tested on: ryegrass, Italian (Italian ryegrass, Lolium multiflorum); assay: Test A preemergence; settings: Lolium multiflorum, pre-emergence, 240 h, Preemergence
Procedure, shortened: as §1

[13] = tested on: giant foxtail (Setaria faberii); assay: Test A preemergence; settings: Setaria faberi, pre-emergence, 240 h, Preemergence
Procedure, shortened: as §1

[14] = tested on: pigweed (Amaranthus retroflexus); assay: Test A preemergence; settings: Amaranthus retroflexus, pre-emergence, 240 h, Preemergence
[15] = tested on: barnyardgrass (Echinochloa crus-galli); assay: Test A preemergence; settings: Echinochloa crus-galli, pre-emergence, 240 h, Preemergence
Procedure, shortened: as §1

[16] = tested on: sedge, umbrella (small-flower umbrella sedge, Cyperus difformis); assay: Test B flooded paddy test; settings: Cyperus difformis, 250 g ai/ha, Flood; 0 to 100 scale where 0 is no effect and 100 is complete control; read-out: Sedge, Umbrella plant response rating
Procedure, shortened: (§2)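 Greenhouse paddy pots with 2-leaf stage plants received compound by direct addition to floodwater 3 cm deep, kept at that level. Scored visually at 13–15 d versus controls (0 no effect; 100 complete control).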

rice (Oryra sativa) = assay: Test B flooded paddy test; settings: Oryza sativa, Flood, 250 g ai/ha; scale of 0 to 100 where 0 is no effect and 100 is complete control; read-out: Rice plant response rating
Procedure, shortened: as §2

[17] = tested on: ducksalad (Heteranthera limosa); assay: Test B flooded paddy test; settings: Heteranthera limosa, Flood, 250 g ai/ha; scale of 0 to 100 where 0 is no effect and 100 is complete control; read-out: Ducksalad plant response rating
Procedure, shortened: as §2

[18] = tested on: barnyardgrass (Echinochloa crus-galli); assay: Test B flooded paddy test; settings: Echinochloa crus-galli, Flood, 250 g ai/ha; scale of 0 to 100 where 0 is no effect and 100 is complete control; read-out: Barnyardgrass plant response rating
Procedure, shortened: as §2

[19] = 125 g ai/ha, visual injury after approximately 10 d, 0 to 100 scale where 0 is no effect and 100 is complete control
[20] = 31 g ai/ha, visual injury after approx. 10 d, 0 to 100 scale, 0 no effect, 100 complete control

O=C(Nc1cccc(F)c1F)[C@H]1C(=O)N(OCc2ccccc2)CC[C@@H]1c1cccc(Cl)c1 [Compound 997]
0%: pest or weed control at 125 g/ha [1, 19] | pest or weed control at 31 g/ha [1, 20] | plant injury at 125 g/ha [2, 19] | plant injury at 31 g/ha [2, 20] | pest or weed control at 125 g/ha [3, 19] | pest or weed control at 31 g/ha [3, 20] | pest or weed control at 125 g/ha (Kochia (Kochia scoparia) [4]; [19]) | pest or weed control at 31 g/ha (Kochia (Kochia scoparia) [4]; [20]) | pest or weed control at 125 g/ha [5, 19] | pest or weed control at 31 g/ha [5, 20] | pest or weed control at 125 g/ha [6, 19] | pest or weed control at 31 g/ha [6, 20] | Corn plant response rating (crop injury, 0 = no effect, 100 = complete kill) at 125 g/ha (corn (Zea mays); [19]) | Corn plant response rating (crop injury, 0 = no effect, 100 = complete kill) at 31 g/ha (corn (Zea mays); [20]) | pest or weed control at 125 g/ha [7, 19] | pest or weed control at 31 g/ha [7, 20] | pest or weed control at 125 g/ha [8, 19] | pest or weed control at 31 g/ha [8, 20] | pest or weed control at 125 g/ha [9, 19] | pest or weed control at 31 g/ha [9, 20] | pest or weed control at 125 g/ha ([10]; 125 g ai/ha, visual injury rating after approximately 10 d, read-out: Ragweed plant response rating (0 to 100 scale, 0 is no effect, 100 is complete control)) | pest or weed control at 31 g/ha ([10]; 31 g ai/ha, 0 to 100 scale (0 no effect, 100 complete control), read-out: Plant response rating, Ragweed) | pest or weed control at 125 g/ha (Kochia (Kochia scoparia) [11]; 125 g ai/ha, visual injury rating after approximately 10 d, read-out: Kochia plant response rating (0 to 100 scale, 0 is no effect, 100 is complete control)) | pest or weed control at 31 g/ha (Kochia (Kochia scoparia) [11]; 31 g ai/ha, 0 to 100 scale (0 no effect, 100 complete control), read-out: Plant response rating, Kochia) | pest or weed control at 125 g/ha ([12]; 125 g ai/ha, visual injury rating after approximately 10 d, read-out: Ryegrass, Italian plant response rating (0 to 100 scale, 0 is no effect, 100 is complete control)) | pest or weed control at 31 g/ha ([12]; 31 g ai/ha, 0 to 100 scale (0 no effect, 100 complete control), read-out: Plant response rating, Ryegrass, Italian) | pest or weed control at 125 g/ha ([13]; 125 g ai/ha, visual injury rating after approximately 10 d, read-out: Foxtail, Giant plant response rating (0 to 100 scale, 0 is no effect, 100 is complete control)) | pest or weed control at 31 g/ha ([13]; 31 g ai/ha, 0 to 100 scale (0 no effect, 100 complete control), read-out: Plant response rating, Foxtail, Giant) | pest or weed control at 125 g/ha ([14]; 125 g ai/ha, visual injury rating after approximately 10 d, read-out: Pigweed plant response rating (0 to 100 scale, 0 is no effect, 100 is complete control)) | pest or weed control at 31 g/ha ([14]; 31 g ai/ha, 0 to 100 scale (0 no effect, 100 complete control), read-out: Plant response rating, Pigweed) | pest or weed control at 125 g/ha ([15]; 125 g ai/ha, visual injury rating after approximately 10 d, read-out: Barnyardgrass plant response rating (0 to 100 scale, 0 is no effect, 100 is complete control)) | pest or weed control at 31 g/ha ([15]; 31 g ai/ha, 0 to 100 scale (0 no effect, 100 complete control), read-out: Plant response rating, Barnyardgrass) | pest or weed control at 250 g/ha [16] | pest or weed control at 250 g/ha (rice (Oryra sativa)) | pest or weed control at 250 g/ha [17] | pest or weed control at 250 g/ha [18]
